# Data from article PMC10638516 (Acta Pharmaceutica Sinica. B, 2023).
# Tests used:
# [1] = target: hDAT (Rattus norvegicus, UniProt P23977); experiment: biochemical; type: binding; conditions: Table 6 selectivity profile
# [2] = Pharmacokinetics study in ICR mice; type: in vivo, mouse; conditions: for half-life: t1/2, ICR mice
# [3] = target: T1, hD3R (Homo sapiens, UniProt P35462); experiment: ERK1/2 phosphorylation; type: cell-based; conditions: for effect on ERK1/2 phosphorylation mediated by hD3R, compound alone (agonist mode): CHO-hD3R cells, quinpirole at 20 μmol/L; for competitive antagonism of ERK1/2 phosphorylation mediated by D3R: in the presence of 20 μmol/L dopamine
# [4] = target: hα1; type: binding, rat; conditions: read-out: Ki hα1; Table 6 selectivity profile
# [5] = target: hH1 (Cavia porcellus, UniProt P31389); experiment: biochemical; type: binding, guinea pig
# [6] = target: h5-HT2A (Homo sapiens, UniProt P28223); experiment: biochemical; type: binding
# [7] = target: hD4 (Homo sapiens, UniProt P21917); experiment: biochemical; type: binding
# [8] = tested on: mice; experiment: Catalepsy test in mice; type: in vivo, mouse; conditions: for Catalepsy peak effect (percent of cataleptic animals) / catalepsy under all tested doses: i.p.; for catalepsy under all tested doses: 23j up to 240 mg/kg, 36a/b/f up to 480 mg/kg
# [9] = BBB penetration study in ICR mice; type: in vivo, mouse
# [10] = target: hD5 (Homo sapiens, UniProt P21918); experiment: biochemical; type: binding
# [11] = tested on: ICR mice; experiment: Spontaneous locomotor test; conditions: compounds 30 mg/kg i.p., RPD 1 mg/kg, 15 min
# [12] = tested on: ICR mice; experiment: Apomorphine-induced climbing; type: in vivo, mouse; conditions: i.p., apomorphine 1.0 mg/kg s.c.
# [13] = target: T2, hD2R (Homo sapiens, UniProt P14416); type: cell-based
# [14] = target: h5-HT1B (Homo sapiens, UniProt P28222); experiment: biochemical; type: binding
# [15] = tested on: mice; experiment: Acute toxicity assay in mice; type: in vivo, mouse; conditions: i.p., up to 600 mg/kg
# [16] = tested on: PC12 cells; experiment: CCK8 cytotoxicity test, PC12; type: cell-based; conditions: 24 h
# [17] = target: T1, hD3R; experiment: biochemical; type: binding; conditions: for inhibition at 10 µM: read-out: % inhibition at 10 μmol/L hD3, 10 μmol/L test compound
# [18] = target: hD1 (Homo sapiens, UniProt P21728); experiment: biochemical; type: binding
# [19] = target: T2, hD2R; experiment: biochemical; type: binding; conditions: for inhibition at 10 µM: read-out: % inhibition at 10 μmol/L hD2
# [20] = target: hNET (Homo sapiens, UniProt P23975); experiment: biochemical; type: binding
# [21] = target: h5-HT2C (Rattus norvegicus, UniProt P08909); experiment: biochemical; type: binding; conditions: Table 6 selectivity profile
# [22] = target: hERG channel (Homo sapiens, UniProt Q12809); experiment: hERG channel automated patch clamp; type: cell-based
# [23] = Weight gain on repeated oral dosing; type: in vivo, mouse; conditions: mice, p.o. once daily 30 days; 23j, 36b 30 mg/kg; RPD 1 mg/kg
# [24] = tested on: ICR mice; experiment: MK-801-induced hyperactivity; conditions: 3 mg/kg i.p.
# [25] = tested on: mice; experiment: Serum prolactin after repeated oral dosing; type: in vivo, mouse; conditions: after 30 days p.o. dosing, 23j, 36b 30 mg/kg, RPD 1 mg/kg
# [26] = target: hSERT (Homo sapiens, UniProt P31645); experiment: biochemical; type: binding
# [27] = target: h5-HT1A (Homo sapiens, UniProt P08908); experiment: biochemical; type: binding
# [28] = target: h5-HT6 (Homo sapiens, UniProt P50406); experiment: biochemical; type: binding
# [29] = tested on: HEK293T cells; experiment: CCK8 cytotoxicity test, HEK293T; type: cell-based; conditions: 24 h, CCK8, compared with RPD
# [30] = tested on: BV2 cells; experiment: CCK8 cytotoxicity test, BV2; type: cell-based; conditions: 24 h, CCK8, compared with RPD
# [31] = tested on: ICR mice; experiment: Tail suspension test; type: in vivo, mouse; conditions: 36b 3, 10, 30 mg/kg, DLX 15 mg/kg
# [32] = tested on: ICR mice; experiment: Forced swimming test; type: in vivo, mouse; conditions: 36b 3, 10, 30 mg/kg, DLX 15 mg/kg
# [33] = ICR, mouse, plasma, iv, 3 mg/kg
# [34] = ICR, mouse, plasma, po, 10 mg/kg
# [35] = Ki hD3, three experiments, means ± SEM
# [36] = hERG inhibition IC50, patch clamp, tested three times
# hERG channel, sequence (Q12809 whole entry): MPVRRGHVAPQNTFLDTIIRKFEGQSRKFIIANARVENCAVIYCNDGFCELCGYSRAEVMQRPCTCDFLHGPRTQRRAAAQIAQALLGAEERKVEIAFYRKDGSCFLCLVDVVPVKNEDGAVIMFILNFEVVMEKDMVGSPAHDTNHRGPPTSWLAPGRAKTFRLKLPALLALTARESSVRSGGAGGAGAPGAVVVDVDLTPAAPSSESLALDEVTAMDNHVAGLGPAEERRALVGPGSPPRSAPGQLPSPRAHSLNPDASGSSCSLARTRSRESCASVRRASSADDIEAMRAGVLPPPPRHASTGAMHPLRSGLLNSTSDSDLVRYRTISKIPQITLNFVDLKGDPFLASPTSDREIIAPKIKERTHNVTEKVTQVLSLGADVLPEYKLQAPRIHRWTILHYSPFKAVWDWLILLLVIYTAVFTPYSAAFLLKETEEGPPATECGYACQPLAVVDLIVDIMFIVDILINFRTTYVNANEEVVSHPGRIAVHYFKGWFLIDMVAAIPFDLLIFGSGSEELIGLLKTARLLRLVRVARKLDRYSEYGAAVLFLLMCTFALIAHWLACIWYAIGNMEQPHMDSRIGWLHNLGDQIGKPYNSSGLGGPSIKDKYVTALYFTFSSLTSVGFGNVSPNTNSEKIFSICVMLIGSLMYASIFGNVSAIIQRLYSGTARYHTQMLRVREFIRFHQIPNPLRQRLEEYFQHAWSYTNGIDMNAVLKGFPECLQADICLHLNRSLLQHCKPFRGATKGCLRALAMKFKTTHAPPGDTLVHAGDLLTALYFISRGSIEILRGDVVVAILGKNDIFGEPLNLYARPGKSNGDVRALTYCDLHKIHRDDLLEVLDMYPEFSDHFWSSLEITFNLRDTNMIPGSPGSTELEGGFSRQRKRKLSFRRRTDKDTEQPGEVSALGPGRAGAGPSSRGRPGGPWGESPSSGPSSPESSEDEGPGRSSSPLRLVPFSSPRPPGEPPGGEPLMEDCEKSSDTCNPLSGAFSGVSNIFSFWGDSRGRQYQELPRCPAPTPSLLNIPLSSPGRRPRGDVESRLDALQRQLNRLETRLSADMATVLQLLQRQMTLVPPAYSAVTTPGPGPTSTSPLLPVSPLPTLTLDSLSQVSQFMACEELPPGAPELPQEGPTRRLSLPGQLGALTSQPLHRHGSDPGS
# T2 sequence (P14416 whole entry): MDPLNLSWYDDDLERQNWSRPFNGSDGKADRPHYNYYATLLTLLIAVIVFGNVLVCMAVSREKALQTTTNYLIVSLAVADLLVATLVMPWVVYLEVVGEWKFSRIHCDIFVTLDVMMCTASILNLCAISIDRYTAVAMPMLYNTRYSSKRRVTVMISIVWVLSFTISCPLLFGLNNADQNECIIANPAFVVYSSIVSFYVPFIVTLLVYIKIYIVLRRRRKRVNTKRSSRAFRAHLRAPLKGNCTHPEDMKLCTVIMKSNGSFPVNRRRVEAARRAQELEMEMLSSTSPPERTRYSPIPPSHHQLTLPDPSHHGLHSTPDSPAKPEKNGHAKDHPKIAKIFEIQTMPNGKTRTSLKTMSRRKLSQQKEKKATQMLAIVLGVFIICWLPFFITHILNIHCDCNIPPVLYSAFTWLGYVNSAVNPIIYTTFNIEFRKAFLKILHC
# T1 sequence (P35462 whole entry): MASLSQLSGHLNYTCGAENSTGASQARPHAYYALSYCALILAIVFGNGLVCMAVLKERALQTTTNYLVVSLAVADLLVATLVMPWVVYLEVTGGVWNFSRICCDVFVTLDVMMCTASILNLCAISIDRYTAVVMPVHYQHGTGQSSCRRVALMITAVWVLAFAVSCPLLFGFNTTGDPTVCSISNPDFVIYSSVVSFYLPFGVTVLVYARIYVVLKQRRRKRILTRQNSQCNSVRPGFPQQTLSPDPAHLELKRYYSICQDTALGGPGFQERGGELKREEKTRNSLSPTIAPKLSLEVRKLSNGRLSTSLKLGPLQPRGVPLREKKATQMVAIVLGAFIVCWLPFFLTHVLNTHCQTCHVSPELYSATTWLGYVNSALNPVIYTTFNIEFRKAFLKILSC
# hDAT, sequence (P23977 whole entry): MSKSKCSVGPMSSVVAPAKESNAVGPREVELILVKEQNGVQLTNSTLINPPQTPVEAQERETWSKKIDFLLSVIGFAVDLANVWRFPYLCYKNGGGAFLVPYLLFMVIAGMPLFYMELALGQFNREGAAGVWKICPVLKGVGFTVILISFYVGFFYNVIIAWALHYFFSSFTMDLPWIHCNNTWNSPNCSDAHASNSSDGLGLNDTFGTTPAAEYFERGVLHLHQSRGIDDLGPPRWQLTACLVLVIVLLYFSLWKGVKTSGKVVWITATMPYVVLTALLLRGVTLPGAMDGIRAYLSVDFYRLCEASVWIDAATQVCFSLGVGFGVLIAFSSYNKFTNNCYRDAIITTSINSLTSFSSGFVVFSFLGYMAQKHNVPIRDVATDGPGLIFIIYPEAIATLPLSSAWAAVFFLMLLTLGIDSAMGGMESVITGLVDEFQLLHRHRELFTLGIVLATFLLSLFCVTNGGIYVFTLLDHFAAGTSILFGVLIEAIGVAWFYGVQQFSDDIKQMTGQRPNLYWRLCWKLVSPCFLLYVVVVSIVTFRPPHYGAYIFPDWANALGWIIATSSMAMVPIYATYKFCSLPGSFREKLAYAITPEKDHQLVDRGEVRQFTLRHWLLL
# hD1, sequence (P21728 whole entry): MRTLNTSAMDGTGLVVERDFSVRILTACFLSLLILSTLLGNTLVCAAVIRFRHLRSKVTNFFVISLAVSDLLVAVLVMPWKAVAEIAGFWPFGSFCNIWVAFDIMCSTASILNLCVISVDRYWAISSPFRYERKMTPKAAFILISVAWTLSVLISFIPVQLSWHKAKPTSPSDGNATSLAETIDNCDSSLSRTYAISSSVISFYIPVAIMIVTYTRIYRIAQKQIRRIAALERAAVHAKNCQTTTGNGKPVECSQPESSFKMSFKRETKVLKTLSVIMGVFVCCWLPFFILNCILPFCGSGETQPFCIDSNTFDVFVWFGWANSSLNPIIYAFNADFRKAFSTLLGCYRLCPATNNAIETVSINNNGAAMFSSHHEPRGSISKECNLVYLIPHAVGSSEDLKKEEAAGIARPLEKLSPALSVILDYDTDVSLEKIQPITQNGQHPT
# hD5, sequence (P21918 whole entry): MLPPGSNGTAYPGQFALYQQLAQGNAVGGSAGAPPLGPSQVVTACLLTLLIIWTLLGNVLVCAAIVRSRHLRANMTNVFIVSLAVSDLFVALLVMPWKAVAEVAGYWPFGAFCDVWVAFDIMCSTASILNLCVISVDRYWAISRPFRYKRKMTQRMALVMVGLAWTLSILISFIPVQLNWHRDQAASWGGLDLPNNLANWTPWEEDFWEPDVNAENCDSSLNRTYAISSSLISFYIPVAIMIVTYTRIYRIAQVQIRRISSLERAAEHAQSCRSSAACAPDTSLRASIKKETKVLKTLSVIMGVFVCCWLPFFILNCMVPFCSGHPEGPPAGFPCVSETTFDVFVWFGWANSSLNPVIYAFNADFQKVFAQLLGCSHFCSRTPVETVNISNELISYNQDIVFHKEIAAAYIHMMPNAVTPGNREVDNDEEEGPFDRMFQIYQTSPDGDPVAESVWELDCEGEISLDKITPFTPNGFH
# hNET, sequence (P23975 whole entry): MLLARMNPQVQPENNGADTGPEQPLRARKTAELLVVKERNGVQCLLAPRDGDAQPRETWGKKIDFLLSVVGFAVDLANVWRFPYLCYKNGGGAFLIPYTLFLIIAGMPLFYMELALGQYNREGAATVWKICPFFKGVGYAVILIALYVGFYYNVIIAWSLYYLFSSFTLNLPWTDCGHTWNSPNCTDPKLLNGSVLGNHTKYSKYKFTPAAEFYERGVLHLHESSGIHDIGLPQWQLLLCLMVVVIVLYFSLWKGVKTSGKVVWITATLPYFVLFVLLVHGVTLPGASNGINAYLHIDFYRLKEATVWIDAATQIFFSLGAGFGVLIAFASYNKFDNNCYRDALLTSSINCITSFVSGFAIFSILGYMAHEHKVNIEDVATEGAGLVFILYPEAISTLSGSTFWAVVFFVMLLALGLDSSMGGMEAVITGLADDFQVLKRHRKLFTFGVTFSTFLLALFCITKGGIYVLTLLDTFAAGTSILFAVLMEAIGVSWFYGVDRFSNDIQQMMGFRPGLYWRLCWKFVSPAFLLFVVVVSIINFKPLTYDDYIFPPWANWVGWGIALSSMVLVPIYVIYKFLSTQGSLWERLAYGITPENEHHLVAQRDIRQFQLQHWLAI
# h5-HT1B, sequence (P28222 whole entry): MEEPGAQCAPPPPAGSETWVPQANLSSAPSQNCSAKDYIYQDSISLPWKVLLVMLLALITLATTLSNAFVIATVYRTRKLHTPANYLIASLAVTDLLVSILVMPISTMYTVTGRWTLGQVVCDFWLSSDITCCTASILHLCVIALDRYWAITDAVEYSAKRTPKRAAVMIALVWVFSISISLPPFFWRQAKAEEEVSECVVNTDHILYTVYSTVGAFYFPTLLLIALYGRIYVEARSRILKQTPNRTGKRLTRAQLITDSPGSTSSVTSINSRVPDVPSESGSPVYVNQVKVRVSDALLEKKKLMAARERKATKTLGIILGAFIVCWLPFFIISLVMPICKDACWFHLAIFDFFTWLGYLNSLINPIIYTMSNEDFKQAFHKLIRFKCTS
# hD4, sequence (P21917 whole entry): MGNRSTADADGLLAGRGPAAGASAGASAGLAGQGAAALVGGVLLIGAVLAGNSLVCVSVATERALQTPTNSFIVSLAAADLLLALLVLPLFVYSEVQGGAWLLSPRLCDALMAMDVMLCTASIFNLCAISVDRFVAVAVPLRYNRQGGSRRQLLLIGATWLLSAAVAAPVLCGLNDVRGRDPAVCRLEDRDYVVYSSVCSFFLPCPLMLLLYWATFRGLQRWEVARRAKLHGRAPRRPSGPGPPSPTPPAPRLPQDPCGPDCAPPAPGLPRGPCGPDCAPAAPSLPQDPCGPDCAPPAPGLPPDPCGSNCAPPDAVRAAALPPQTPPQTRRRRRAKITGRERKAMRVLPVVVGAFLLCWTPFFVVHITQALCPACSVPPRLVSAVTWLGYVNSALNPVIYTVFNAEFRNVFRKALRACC
smiles,measurement,setting,value
CCn1c2ccccc2c2cc(CNCCCCNC(=O)c3ccc(-c4cccnc4)cc3)ccc21 [23j],Ki,[1],6.1 µM
same,t1/2,"[2]; ICR mice, 10 mg/kg p.o., single dose, 10 mg/kg",70.2 min
same,AUC,[2]; [33],326 ng·h/mL
same,Cmax,[2]; [33],567 ng/mL
same,MRT,[2]; [33],28.8 min
same,Tmax,[2]; [33],4.8 min
same,Vd,[2]; [33],4.44 L/kg
same,clearance,[2]; [33],153 mL/min/kg
same,half-life,"[2]; ICR, mouse, plasma, iv, 3 mg/kg, 3 mg/kg i.v., single dose",31.8 min
same,bioavailability,"[2]; ICR, mouse, plasma, oral, 10 mg/kg",8.7%
same,AUC,[2]; [34],94.4 ng·h/mL
same,Cmax,[2]; [34],78.8 ng/mL
same,MRT,[2]; [34],52.2 min
same,Tmax,[2]; [34],10.2 min
same,half-life,"[2]; ICR, mouse, plasma, po, 10 mg/kg, 10 mg/kg p.o., single dose",66 min
same,"effect on ERK1/2 phosphorylation mediated by hD3R, compound alone (agonist mode)",[3],no influence
same,competitive antagonism of ERK1/2 phosphorylation mediated by D3R,[3],dose-dependently inhibit
same,Ki,[4],8.35 µM
same,Ki,[5],5.2 µM
same,Ki,[6],0.214 µM
same,Ki,[7],> 10 µM
same,Catalepsy MED i.p. (minimum effective dose),[8],≥240.0 mg/kg
same,Catalepsy peak effect (percent of cataleptic animals),[8],0.0%
same,catalepsy under all tested doses,[8],did not elicit catalepsy
same,Brain/plasma ratio at 2.0 h,"[9]; 3 mg/kg i.v., 3 mg/kg",1.60
same,Brain concentration at 0.5 h,[9]; 10 mg/kg p.o.,too low to test
same,concentration at 0.5 h,"[9]; ICR, mouse, brain, iv, 3 mg/kg, Brain concentration at 0.5 h, 3 mg/kg i.v.",98 ng/mL
same,concentration at 2 h,"[9]; ICR, mouse, brain, iv, 3 mg/kg, Brain concentration at 2.0 h, 3 mg/kg i.v.",11.5 ng/mL
same,Kp at 0.5 h,"[9]; ICR, mouse, brain, iv, 3 mg/kg, Brain/plasma ratio at 0.5 h, 3 mg/kg i.v.",0.55
same,concentration at 0.5 h,"[9]; ICR, mouse, plasma, iv, 3 mg/kg, Plasma concentration at 0.5 h, 3 mg/kg i.v.",180 ng/mL
same,concentration at 2 h,"[9]; ICR, mouse, plasma, iv, 3 mg/kg, Plasma concentration at 2.0 h, 3 mg/kg i.v.",7.17 ng/mL
same,concentration at 0.5 h,"[9]; ICR, mouse, plasma, po, 10 mg/kg, Plasma concentration at 0.5 h, 10 mg/kg p.o.",53.4 ng/mL
same,concentration at 2 h,"[9]; ICR, mouse, plasma, po, 10 mg/kg, Plasma concentration at 2.0 h, 10 mg/kg p.o.",2.89 ng/mL
same,Ki,[10],> 10 µM
same,effect on spontaneous locomotion,[11],no influences
same,inhibition of apomorphine-induced climbing,[12],dose-dependently inhibit
same,"effect on ERK1/2 phosphorylation mediated by hD2R, compound alone (agonist mode)",[13],weak partial agonism
same,Ki,[14],0.172 µM
same,acute toxicity / tolerance,[15],dose-dependent lethal toxicity from 240 to 600 mg/kg
same,cytotoxicity in PC12 cells,[16],significant cytotoxicity at high concentrations
same,improvement of D3R binding affinity versus the phenyl group (23g),[17],approximately 10 fold
same,Ki,"[17]; Ki hD3, Table 6 selectivity profile",0.0168 µM
same,Ki,[17]; [35],0.0139 ± 0.0034 µM
same,inhibition at 10 µM,[17],107.3 ± 0.3%
same,Ki,[18],> 10 µM
same,Ki,[19],> 10 µM
same,inhibition at 10 µM,[19],12.4 ± 5.8%
same,Ki,[20],> 10 µM
same,Ki,[21],2.23 µM
same,IC50,[22]; [36],2.46 µM
same,body weight / weight gain,[23],No influence on body weight
same,inhibition of MK-801-induced hyperactivity at 3 mg/kg,[24],did not show the inhibition activity
same,serum prolactin level,[25],nonsignificant serum prolactin change
same,Ki,[26],5.41 µM
same,Ki,[27],0.579 µM
same,Ki,[28],8.72 µM
Cn1c2c(c3ccccc31)CN(CCCCNC(=O)c1ccc(-c3ccccc3)cc1)CC2 [36f],"effect on ERK1/2 phosphorylation mediated by hD3R, compound alone (agonist mode)",[3],no influence
same,competitive antagonism of ERK1/2 phosphorylation mediated by D3R,[3],dose-dependently inhibit
same,effect on the viability of HEK293T,[29],less effects
same,Catalepsy MED i.p. (minimum effective dose),[8],≥480.0 mg/kg
same,Catalepsy peak effect (percent of cataleptic animals),[8],0.0%
same,catalepsy under all tested doses,[8],did not elicit catalepsy
same,effect on spontaneous locomotion,[11],no influences
same,"effect on ERK1/2 phosphorylation mediated by hD2R, compound alone (agonist mode)",[13],no functional affects
same,acute toxicity / tolerance,[15],well tolerant
same,Ki,[17]; [35],0.0041 ± 0.0003 µM
same,inhibition at 10 µM,[17],104 ± 1.4%
same,Ki,[19],> 10 µM
same,inhibition at 10 µM,[19],-20.7 ± 4.9%
same,IC50,"[22]; hERG IC50, patch clamp",> 40 µM
same,IC50,[22]; [36],46.9 µM
same,inhibition of MK-801-induced hyperactivity at 3 mg/kg,[24],reduced the distance of mice movement
same,effect on the viability of BV2,[30],less effects
"CNCC[C@H](Oc1cccc2ccccc12)c1cccs1 [DLX, duloxetine, reference compound]",immobility time in the TST,[31],robust decrease
same,FST latency,[32],failed to prolong
same,immobility time of FST,[32],robust decrease
